In publication PMC7750190, “GapB Is Involved in Biofilm Formation Dependent on LrgAB but Not the SinI/R System in Bacillus cereus 0-9” (Frontiers in Microbiology, 2020):

Target: T1, GapB (Bacillus cereus, UniProt Q817G8)
T1 construct: gene BC_4583; full gapB gene in pET28a, GapB-His6, E. coli BL21 (DE3), Ni-IMAC and Superdex 200, 42 kDa by SDS-PAGE
Experiment: NAD(P)H production at […] nm
Assay type: biochemical
Settings: 20 mM glyceraldehyde-3-phosphate, 50 mM Na2HPO4, 5 mM EDTA, pH 7.5, 37°C, 30 min

T1 sequence (Q817G8 entry or part of it): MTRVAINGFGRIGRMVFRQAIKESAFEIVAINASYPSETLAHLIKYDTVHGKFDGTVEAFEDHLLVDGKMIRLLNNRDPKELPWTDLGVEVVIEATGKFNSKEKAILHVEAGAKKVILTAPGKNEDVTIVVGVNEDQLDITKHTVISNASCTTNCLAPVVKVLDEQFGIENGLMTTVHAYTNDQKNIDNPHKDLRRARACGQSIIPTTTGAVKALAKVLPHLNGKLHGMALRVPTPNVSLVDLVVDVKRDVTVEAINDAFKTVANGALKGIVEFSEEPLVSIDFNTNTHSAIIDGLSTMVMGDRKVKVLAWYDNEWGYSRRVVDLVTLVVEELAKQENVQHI

For `NC(=O)c1ccc[n+]([C@@H]2O[C@H](COP(=O)(O)OP(=O)(O)OC[C@H]3O[C@@H](n4cnc5c(N)ncnc54)[C@H](OP(=O)(O)O)[C@@H]3O)[C@@H](O)[C@H]2O)c1` [NADP^+], the “NAD(P)H production at 340 nm” value (2 mM NADP+) was “GapB protein has enzyme activities with either NAD^+ or NADP^+ as a cofactor”.

With `NC(=O)c1ccc[n+]([C@@H]2O[C@H](COP(=O)(O)OP(=O)(O)OC[C@H]3O[C@@H](n4cnc5c(N)ncnc54)[C@H](O)[C@@H]3O)[C@@H](O)[C@H]2O)c1` [NAD^+] the “NAD(P)H production at 340 nm” value (10 mM NAD+) was “GapB protein has enzyme activities with either NAD^+ or NADP^+ as a cofactor”.
